Experimental data reported in paper PMC5813016 (Nature Communications, 2018).
“And” between values parts separate entries of the source, which are not always exact repeats. Equal entries are not always repeated. “Also recorded” adds a separate entry of the source.

What was measured:
human D1R Y194F mutant = test: cAMP assay, D1R mutant Y194F; conditions: relative to wild-type D1R; each table line is one experiment (Experiment # 1-6)
human D1R W318A mutant = test: cAMP assay, D1R mutant W318A; conditions: relative to wild-type D1R; each table line is one experiment (Experiment # 1-6)
human D1R S198A mutant = test: cAMP assay, D1R mutant S198A; conditions: relative to wild-type D1R; each table line is one experiment (Experiment # 1-6)
cynomolgus monkeys = test: Monkey spontaneous eye blink rate (EBR); format: in vivo, Macaca fasicularis; conditions: cynomolgus monkey; for EBR response on repeated daily dosing (3 days): n = 3, A-77636 s.c., PF-2334 oral 0.6 + 0.3 mg/kg
Experimental: Increase in spontaneous EBR has been previously shown with D1 agonists and partial agonists. To confirm the specificity of the response in our particular assay set up for D1 activation, we verified that the D1 receptor antagonist SCH-39166 fully blocks the increased eye blink response of non-catechol full D1 agonist that is a close structural analog of the compounds in this paper (data not shown). All procedures involving animals were conducted with approval of the Pfizer Institutional Animal Care and Use Committee (Groton, CT) and compliant with the regulations and standards of the Animal Welfare Act (9CFR2, 9CFR3). Three male Cynomolgus macaques (Macaca fasicularis) of Mauritian origin, 7–10 years old, SPF for CHV-1, SIV, STLV1 and SRV 1, 2, 5 were used. Animals were exposed to 12 h light/dark cycle (lights on 6:00 AM – 6:00 PM). […] EBRS were recorded from chaired animals for 2 min at 10 min intervals by a trained observer through direct visual observation who was blinded to experimental conditions. Animals were chaired at approximately 7:30 AM. After vehicle or compound administration, eye blinks were recorded during the following intervals: from 10 to 50 min (0–1 h), 130 to 170 min (2–3 h), 310 to 350 min (5–6 h). Animals were returned to their home cages between two consecutive sessions and after the final recording of the day. Blood samples (1 ml) were collected from the femoral vein at 1 and 5 h after the first dose to quantitate plasma compound levels. […] A77636 was dissolved in 0.9% sterile saline, formulated fresh prior to administration, and given once per day for 3 days. […] Vehicle control was administered on day 0.
EBR data were first converted to blinks per minute. EBR were averaged by binning into 3 periods: Period 1 (0–1 h after the first dose) EBR = mean of 10, 20, 30, 40, and 50 min recordings; Period 2 (2–3 h after the first dose) EBR = mean of 130, 140, 150, 160, and 170 min recordings; Period 3 (5–6 h after the first dose) EBR = mean of 310, 320, 330, 340, and 350 min recordings. For Fig. 5c EBR data were averaged by binning data from periods 1 through 3 as daily EBR. Data from each animal was then normalized to their respective Day 1 EBR and expressed as percent of Day 1 EBR for each drug. EBR data were analyzed with SAS® 9.4 (SAS Institute Inc. Cary, NC) using a mixed linear model (Mixed Procedure) for repeated measures. The model included treatment, day, time period, and their interactions as fixed effects, and animal and animal-by-day interaction as random effects. A first order autoregressive model was used for longitudinal covariance structure. Differences between least squares means across days, overall and for each time period, were tested and adjusted for multiple comparisons via Tukey method. […]

[1] = system: rats with unilateral 6-OHDA lesions; test: Rat unilateral 6-OHDA lesion model, contralateral rotations; format: in vivo, Sprague-Dawley rat; conditions: for contralateral rotational behavior on repeated dosing: 6-OHDA lesioned rats, six doses every 12 h, A-77636 0.32 mg/kg s.c., PF-2334 10.78 mg/kg oral; for pairwise contrast of rotational speed, estimate: 6-OHDA rats
Experimental: Sprague-Dawley rats with 6-OHDA lesions were obtained from Taconic (Rensselaer, NY). For the lesion surgery rats (~175 g) were anesthetized with isoflurane and given desipramine to protect noradrenergic neurons (10 mg/kg). The medial forebrain was targeted using AP:−4.3 mm; ML:−1.2 mm; DV:8.3 mm using a 30 G cannula. […] The cannula was left in place post-infusion for 5 min. To assess the extent of the lesion animals were given an apomorphine (0.05 mg/kg S.C.) challenge 21 day after the lesion surgery. Matched sham lesioned animals from the same source received exactly the same procedures except saline was infused into the brain. Only animals with more than 180 contralateral rotations over 30 min or more than 30 rotations in multiple 5 min intervals were used for the study. Experiments began 12 weeks after lesion.
Rats with sham (n = 20) and unilateral 6-OHDA lesions (n = 17) were obtained and four weeks after lesion used for the study. […] Animals followed a normal light cycle (6:00 AM lights on and 6:00 PM lights off). Animals were provided with food and water ad libitum in the chambers. Activity was monitored with infrared ceiling cameras (Y-cam, London, UK) and rotational behavior was quantified by automated movie analysis via validated custom software. Animals were acclimated and recorded for 2 h to the test chambers prior to the first dose.
Rotational behavior was detected using custom software written in Python language, version 2.7. OpenCV library, version 2.10 was used for video analyses[73],[74]. R software, version 3.1.0, was used for statistical analyses. Rotational behavior is described as the average number of rotations per minute (RPM) during the 6 h period immediately following each dose. To quantify changes within each treatment group as well as differences between treatments over time we used a longitudinal mixed model two-way ANOVA[75] with time, treatment, and their interaction as fixed factors and animal as a random factor. Least-squares means for specified factors were estimated using lsmeans library. Post-hoc comparisons to reference time point were adjusted for multiple hypothesis testing via Dunnett′s method. All statistical tests were performed two-tailed at a 5% level of significance.

In the case of `Cc1cc(Oc2nccc3occc23)ccc1-c1c(C)ncnc1C` [PF-8871], the “fold shift of cAMP functional potency, Y194F (EC50 mutant/ EC50 WT)” value (human D1R Y194F mutant) is reported as 1.3 and the “fold shift of cAMP functional potency, W318A (EC50 mutant/ EC50 WT)” value (human D1R W318A mutant) is reported as 12.5.
`Cc1cc(Oc2nccc3occc23)ccc1-c1c(C)ncc2nccn12` [PF-6142] was tested, and the “fold shift of cAMP functional potency, S198A (EC50 mutant/ EC50 WT)” value (human D1R S198A mutant) was 6.0 and 7.0 and 6.4 and 7.5 and the “fold shift of cAMP functional potency, W318A (EC50 mutant/ EC50 WT)” value (human D1R W318A mutant) was 16.3 and 20.4.
In the case of `NC[C@@H]1O[C@H](C23CC4CC(CC(C4)C2)C3)Cc2c1ccc(O)c2O` [A-77636, reference compound], the “EBR response on repeated daily dosing (3 days)” value (cynomolgus monkeys) is reported as “progressively and significantly attenuated with each dosing day”, the “increase of spontaneous EBR over baseline after single dose” value (cynomolgus monkeys; A-77636 s.c. (0.1 mg/kg as printed elsewhere in the source), PF-2334 oral 0.6 mg/kg + 0.3 mg/kg 8 h later) is reported as 2–3 fold and the “contralateral rotational behavior on repeated dosing” value [1] is reported as “essentially zero contralateral rotational behavior”.
With `Cc1n[nH]c(=O)c(C)c1-c1ccc(Oc2nccc3occc23)cc1F` [PF-2334] the “EBR response on repeated daily dosing (3 days)” value (cynomolgus monkeys) was “sustained after multiple days of dosing”, the “contralateral rotational behavior on repeated dosing” value [1] was “significantly greater rotational behavior than A-77636 treated animals; also recorded: still displaying contralateral rotational behavior following the 6th dose” and the “pairwise contrast of rotational speed, estimate” value (“pairwise contrast” below) ([1]; PF-2334 10.78 mg/kg p.o. every 12 h, contrast (time range, hours) 24 - 36, least-squares means) was 0.4016. The “pairwise contrast” value ([1]; PF-2334, contrast (hours) 24 - 48) was 0.3322, the “pairwise contrast” value ([1]; PF-2334, contrast (hours) 24 - 60) was 0.371 and the “pairwise contrast” value ([1]; PF-2334, contrast (hours) 24 - 72 (72 h = quinpirole dose)) was 1.093. The “pairwise contrast” value ([1]; PF-2334, contrast (hours) 36 - 48) was -0.06943, the “pairwise contrast” value ([1]; PF-2334, contrast (hours) 36 - 60) was -0.03066 and the “pairwise contrast” value ([1]; PF-2334, contrast (hours) 36 - 72 (72 h = quinpirole dose)) was 0.6914. The “pairwise contrast” value ([1]; PF-2334, contrast (hours) 48 - 60) was 0.03877, the “pairwise contrast” value ([1]; PF-2334, contrast (hours) 48 - 72 (72 h = quinpirole dose)) was 0.7609 and the “pairwise contrast” value ([1]; PF-2334, contrast (hours) 60 - 72 (72 h = quinpirole dose)) was 0.7221.
